Laboratory results published in patent publication US8618154B2, “LXR modulators” (Bristol-Myers Squibb Company, priority 2009, dated 2013).

Assay: High throughput metabolic stability in human microsomes
Type: in vitro ADME
Details: parent compound remaining at 10 minutes, human liver microsomes
Description: The metabolic stability assay evaluates CYP-mediated metabolic stability in vitro using Human liver microsomes after a ten-minute incubation.
Test compound is received as a 3.5 mM stock solution in 100 percent DMSO. Compound is diluted to create a 50 μM acetonitrile (ACN) solution containing 1.4% DMSO, which is then used as a 100× stock for incubation with human liver microsomes. Each compound is tested in duplicate. Compound, NADPH and liver microsome solutions are combined for incubation in three steps: • 1) 152 μl of liver microsome suspension, protein concentration of 1.1 mg/ml in 100 mM NaPi, pH 7.4, 5 mM MgCl2 buffer, is pre-warmed at 37° C. • 2) 1.7 μl of 50 μM compound (98.6% ACN, 1.4% DMSO) is added to the same tube and pre-incubated at 37° C. for 5 minutes. • 3) The reaction is initiated by the addition of 17 μl of pre-warmed 10 mM NADPH solution in 100 mM NaPi, pH 7.4.
Reaction components are mixed well, and 75 μl are immediately transferred into 150 μl quench/stop solution (zero-time point, T0). Reactions are incubated at 37° C. for 10 minutes and then an additional 75 μl aliquot is transferred into 150 μl quench solution. Acetonitrile containing 100 μM DMN (a UV standard for injection quality control), is used as the quench solution to terminate metabolic reactions.
Quenched mixtures are centrifuged at 1500 rpm (˜500× g) in an Allegra X-12 centrifuge, SX4750 rotor (Beckman Coulter Inc., Fullerton, Calif.) for fifteen minutes to pellet denatured microsomes. A volume of 90 μl of supernatant extract, containing the mixture of parent compound and its metabolites, is then transferred to a separate 96-well plate for UV-LC/MS-MS analysis to determine the per cent of parent compound that is remaining in the mixture.
The mass spectrometric conditions obtained from automated infusion are used to analyze incubation samples from the Metabolic Stability assay. The injection volume is 5 μl and the flow rate is 0.8 ml/min. The gradient used is show in the table below. All samples are injected with the gradient using mobile phase A and B first. If necessary (for instance, for chromatographic reasons), samples are re-injected with the same gradient, but using mobile phase C and D. All LC-MS/MS analysis parameters are captured electronically in the raw data files.
Peak integration is performed with the Xcalibur™ software. The percent remaining calculation is performed by comparing the LC-MS/MS peak areas from the T10minute samples to those from the T0minute samples for each compound.

| Compound | Human Microsome % Remaining [%] |
| --- | --- |
| CC(C)(O)c1cn(-c2ccc(-c3cc(F)c(CO)c(S(C)(=O)=O)c3)cc2)c(C(C)(C)c2ccccc2F)n1 [Example 1, 2-(1-(3′-fluoro-4′-(hydroxymethyl)-5′-(methylsulfonyl)biphenyl-4-yl)-2-(2-(2-fluorophenyl)propan-2-yl)-1H-imidazol-4-yl)propan-2-ol] | >80 |
| Cc1cc(-c2cc(F)c(CO)c(S(C)(=O)=O)c2)ccc1-n1cc(C(C)(C)O)nc1C(C)(C)c1c(F)cccc1Cl [Example 2, 2-(2-(2-(2-chloro-6-fluorophenyl)propan-2-yl)-1-(3′-fluoro-4′-(hydroxymethyl)-3-methyl-5′-(methylsulfonyl)biphenyl-4-yl)-1H-imidazol-4-yl)propan-2-ol] | >80 |
| CC(C)(O)c1cn(-c2ccc(-c3cc(F)c(CO)c(S(C)(=O)=O)c3)cc2Cl)c(C(C)(C)c2c(Cl)cccc2Cl)n1 [Example 3, 2-(1-(3-chloro-3′-fluoro-4′-(hydroxymethyl)-5′-(methylsulfonyl)biphenyl-4-yl)-2-(2-(2,6-dichlorophenyl)propan-2-yl)-1H-imidazol-4-yl)propan-2-ol] | >80 |
| CC(C)(O)c1cn(-c2ccc(-c3cc(F)c(CO)c(S(C)(=O)=O)c3)cc2)c(C(C)(C)c2c(Cl)cccc2Cl)n1 [Example 5, 2-(2-(2-(2,6-dichlorophenyl)propan-2-yl)-1-(3′-fluoro-4′-(hydroxymethyl)-5′-(methylsulfonyl)biphenyl-4-yl)-1H-imidazol-4-yl)propan-2-ol] | >80 |
| CC(C)(O)c1cn(-c2ccc(-c3cc(F)c(CO)c(S(C)(=O)=O)c3)cc2F)c(C(C)(C)c2ccccc2Cl)n1 [Example 6, 2-(2-(2-(2-Chloro-phenyl)propan-2-yl)-1-(3,3′-difluoro-4′-hydroxymethyl-5′-(methylsulfonyl)biphenyl-4-yl)-1H-imidazol-4-yl)-propan-2-ol] | >80 |
| CC(C)(O)c1cn(-c2ccc(-c3cc(F)c(CO)c(S(C)(=O)=O)c3)cc2F)c(C(C)(C)c2c(F)cccc2Cl)n1 [Example 7, 2-(2-(2-(2-chloro-6-fluorophenyl)propan-2-yl)-1-(3,3′-difluoro-4′-(hydroxymethyl)-5′-(methylsulfonyl)biphenyl-4-yl)-1H-imidazol-4-yl)propan-2-ol] | >80 |
| CC(C)(O)c1cn(-c2ccc(-c3cc(F)c(CO)c(S(C)(=O)=O)c3)cc2F)c(C(C)(C)c2ccccc2F)n1 [Example 8, 2-{1-(3,3′-Difluoro-4′-hydroxymethyl-5′-methanesulfonyl-biphenyl-4-yl)-2-[2-(2-fluorophenyl)propan-2-yl]-1H-imidazol-4-yl}-propan-2-ol] | >80 |
| CC(C)(O)c1cn(-c2ccc(-c3cc(F)c(CO)c(S(C)(=O)=O)c3)cc2F)c(Cc2ccc(Cl)cc2Cl)n1 [Example 11, 2-(2-(2,4-dichlorobenzyl)-1-(3,3′-difluoro-4′-(hydroxymethyl)-5′-(methylsulfonyl)biphenyl-4-yl)-1H-imidazol-4-yl)propan-2-ol] | >80 |
| CC(C)(O)c1cn(-c2ccc(-c3cc(F)c(CO)c(S(C)(=O)=O)c3)cc2F)c(Cc2ccccc2C(F)(F)F)n1 [Example 12, 2-(1-(3,3′-difluoro-4′-(hydroxymethyl)-5′-(methylsulfonyl)biphenyl-4-yl)-2-(2-(trifluoromethyl)benzyl)-1H-imidazol-4-yl)propan-2-ol] | >80 |
| CC(C)(O)c1cn(-c2ccc(-c3cc(F)c(CO)c(S(C)(=O)=O)c3)cc2Cl)c(Cc2ccc(F)cc2Cl)n1 [Example 13, 2-(1-(3-chloro-3′-fluoro-4′-(hydroxymethyl)-5′-(methylsulfonyl)biphenyl-4-yl)-2-(2-chloro-4-fluorobenzyl)-1H-imidazol-4-yl)propan-2-ol] | >80 |
| CC(C)(O)c1cn(-c2ccc(-c3cc(F)c(CO)c(S(C)(=O)=O)c3)cc2F)c(Cc2ccc(F)cc2Cl)n1 [Example 14, 2-(2-(2-chloro-4-fluorobenzyl)-1-(3,3′-difluoro-4′-(hydroxymethyl)-5′-(methylsulfonyl)biphenyl-4-yl)-1H-imidazol-4-yl)propan-2-ol] | >80 |
| CC(C)(O)c1cn(-c2ccc(-c3cc(F)c(CO)c(S(C)(=O)=O)c3)cc2)c(Cc2ccc(Cl)cc2Cl)n1 [Example 15, 2-(2-(2,4-dichlorobenzyl)-1-(3′-fluoro-4′-(hydroxymethyl)-5′-(methylsulfonyl)biphenyl-4-yl)-1H-imidazol-4-yl)propan-2-ol] | >80 |
| CC(C)(O)c1cn(-c2ccc(-c3cc(F)c(CO)c(S(C)(=O)=O)c3)cc2F)c(Cc2ccccc2F)n1 [Example 16, 2-(1-(3,3′-difluoro-4′-(hydroxymethyl)-5′-(methylsulfonyl)biphenyl-4-yl)-2-(2-fluorobenzyl)-1H-imidazol-4-yl)propan-2-ol] | >80 |
| Cc1ccccc1Cc1nc(C(C)(C)O)cn1-c1ccc(-c2cc(F)c(CO)c(S(C)(=O)=O)c2)cc1 [Example 17, 2-(1-(3′-fluoro-4′-(hydroxymethyl)-5′-(methylsulfonyl)biphenyl-4-yl)-2-(2-methylbenzyl)-1H-imidazol-4-yl)propan-2-ol] | >80 |
| CC(C)(O)c1cn(-c2ccc(-c3cc(F)c(CO)c(S(C)(=O)=O)c3)cc2)c(Cc2c(Cl)cccc2Cl)n1 [Example 18, 2-(2-(2,6-dichlorobenzyl)-1-(3′-fluoro-4′-(hydroxymethyl)-5′-(methylsulfonyl)biphenyl-4-yl)-1H-imidazol-4-yl)propan-2-ol] | >80 |
| CC(C)(O)c1cn(-c2ccc(-c3cc(F)c(CO)c(S(C)(=O)=O)c3)cc2)c(Cc2cc(F)ccc2Cl)n1 [Example 19, 2-[2-(2-Chloro-5-fluoro-benzyl)-1-(3′-fluoro-4′-hydroxymethyl-5′-methanesulfonyl-biphenyl-4-yl)-1H-imidazol-4-yl]-propan-2-ol] | >80 |
| CC(C)(O)c1cn(-c2ccc(-c3cc(F)c(CO)c(S(C)(=O)=O)c3)cc2F)c(Cc2ccccc2Cl)n1 [Example 20, 2-[2-(2-Chloro-benzyl)-1-(3,3′-difluoro-4′-hydroxymethyl-5′-methanesulfonyl-biphenyl-4-yl)-1H-imidazol-4-yl]-propan-2-ol] | >80 |
| CC(c1c(Cl)cccc1Cl)c1nc(C(C)(C)O)cn1-c1ccc(-c2cc(F)c(CO)c(S(C)(=O)=O)c2)cc1F (stereo not drawn) [Example 21, 2-{2-[1-(2,6-dichlorophenyl)ethyl]-1-[3,3′-difluoro-4′-(hydroxymethyl)-5′-(methylsulfonyl)biphenyl-4-yl]-1H-imidazol-4-yl}propan-2-ol] | >80 |
